Measured values from ChEMBL document CHEMBL1212738, “Phenotypic and genotypic characterization of Enterobacteriaceae with decreased susceptibility to carbapenems: results from large hospital-based surveillance studies in China” (2010).
≈ marks a conversion by molar mass, not a printed value.

Tests used:
Klebsiella pneumoniae [1] = assay: Antimicrobial activity against Klebsiella pneumoniae ZJ68T expressing CTX-M-15 by CLSI method; type: functional
Klebsiella pneumoniae [2] = assay: Antimicrobial activity against carbapenem-resistant Klebsiella pneumoniae ZJ69 deficient in SHV-28, ompK35/36 by CLSI method; type: functional
Klebsiella pneumoniae [3] = assay: Antimicrobial activity against carbapenem-resistant Klebsiella pneumoniae GZ83 deficient in SHV-11, CTX-M-14, ompK35/36 by CLSI method; type: functional
Klebsiella pneumoniae [4] = assay: Antimicrobial activity against carbapenem-resistant Klebsiella pneumoniae PU104 deficient in TEM-1, SHV-11, CTX-M-15, qnrS1, ompK35/36 by CLSI method; type: functional
Escherichia coli [5] = assay: Antimicrobial activity against carbapenem-resistant Escherichia coli PU60 deficient in TEM-1, CMY-2, ompC/F by CLSI method; type: functional
Escherichia coli [6] = assay: Antimicrobial activity against Escherichia coli PU60T expressing CMY-2 by CLSI method; type: functional
Escherichia coli [7] = assay: Antimicrobial activity against Escherichia coli PU101T expressing CMY-2 by CLSI method; type: functional
Enterobacter cloacae [8] = assay: Antimicrobial activity against carbapenem-resistant Enterobacter cloacae GX24 deficient in TEM-1, DHA-1, aac(6')-Ib, ompC by CLSI method; type: functional
Escherichia coli [9] = assay: Antimicrobial activity against carbapenem-resistant Escherichia coli PU43 deficient in TEM-1, CTX-M-14, aac(6')-Ib, ompC/F by CLSI method; type: functional
Escherichia coli [10] = assay: Antimicrobial activity against carbapenem-resistant Escherichia coli HX74 deficient in TEM-1, CTX-M-14, CTX-M-3, aac(6')-Ibcr, ompC/F by CLSI method; type: functional
Enterobacter cloacae [11] = assay: Antimicrobial activity against carbapenem-resistant Enterobacter cloacae GX56 deficient in ompC and expressing low levels of ompF DE by CLSI method; type: functional
Enterobacter cloacae [12] = assay: Antimicrobial activity against carbapenem-resistant Enterobacter cloacae NJ88 deficient in CTX-M-14, ompC/F by CLSI method; type: functional
Enterobacter cloacae [13] = assay: Antimicrobial activity against carbapenem-resistant Enterobacter cloacae NJ89 deficient in CTX-M-14, ompC/F by CLSI method; type: functional
Citrobacter freundii [14] = assay: Antimicrobial activity against Citrobacter freundii RJ78 expressing CMY-2, qnrA1, aac(6')-Ib-cr, ompC by CLSI method; type: functional
Klebsiella pneumoniae [15] = assay: Antimicrobial activity against Klebsiella pneumoniae ZJ18T expressing KPC-2, DHA-1 by CLSI method; type: functional
Klebsiella pneumoniae [16] = assay: Antimicrobial activity against carbapenem-resistant Klebsiella pneumoniae ZJ71 deficient in KPC-2, TEM-1, SHV-11, CTX-M-14, ompK35 by CLSI method; type: functional
Klebsiella pneumoniae [17] = assay: Antimicrobial activity against Klebsiella pneumoniae ZJ71T expressing KPC-2 by CLSI method; type: functional
Klebsiella pneumoniae [18] = assay: Antimicrobial activity against Klebsiella pneumoniae ZJ99T expressing KPC-2, CTX-M-3, qnrS1 by CLSI method; type: functional
Klebsiella pneumoniae [19] = assay: Antimicrobial activity against Klebsiella pneumoniae FZ47T expressing IMP-8, TEM-1, CTX-M-14, qnrB2, aac(6')-Ib by CLSI method; type: functional
Klebsiella pneumoniae [20] = assay: Antimicrobial activity against carbapenem-resistant Klebsiella pneumoniae FZ49 deficient in IMP-8, TEM-1, SHV-11, CTX-M-14, qnrB2, aac(6')-Ib, ompK35/36 by CLSI method; type: functional
Klebsiella pneumoniae [21] = assay: Antimicrobial activity against Klebsiella pneumoniae WH77 expressing IMP-4, TEM-1, SHV-14, CTX-M-3, qnrS1 by CLSI method; type: functional
Citrobacter freundii [22] = assay: Antimicrobial activity against Citrobacter freundii SZ62 expressing IMP-4, TEM-1, CMY-2, qnrS1, aac(6')-Ib-cr by CLSI method; type: functional
Enterobacter cloacae [23] = assay: Antimicrobial activity against carbapenem-resistant Enterobacter cloacae RJ94 deficient in IMP-4, TEM-1, CTX-M-3, ompC by CLSI method; type: functional
Enterobacter cloacae [24] = assay: Antimicrobial activity against carbapenem-resistant Enterobacter cloacae WH103 deficient in IMP-4, TEM-1, CTX-M-3, qnrS1, ompC by CLSI method; type: functional
Klebsiella pneumoniae [25] = assay: Antimicrobial activity against carbapenem-resistant Klebsiella pneumoniae PU3 deficient in DHA-1, aac(6')-Ib-cr, ompK35/36 by CLSI method; type: functional
Klebsiella pneumoniae [26] = assay: Antimicrobial activity against carbapenem-resistant Klebsiella pneumoniae PU8 deficient in SHV-11, DHA-1, aac(6')-Ib-cr, ompK35/36 by CLSI method; type: functional
Klebsiella pneumoniae [27] = assay: Antimicrobial activity against carbapenem-resistant Klebsiella pneumoniae GZ66 deficient in SHV-11, DHA-1, ompK35/36 by CLSI method; type: functional
Klebsiella pneumoniae [28] = assay: Antimicrobial activity against carbapenem-resistant Klebsiella pneumoniae SX67 deficient in SHV-2, CTX-M-14, DHA-1, qnrB6/S1, aac(6')-Ib-cr, ompK35/36 by CLSI method; type: functional
Klebsiella pneumoniae [29] = assay: Antimicrobial activity against carbapenem-resistant Klebsiella pneumoniae XJ81 deficient in TEM-1, SHV-12, DHA-1, aac(6')-Ib, ompK35/36 by CLSI method; type: functional
Escherichia coli [30] = assay: Antimicrobial activity against Escherichia coli C600 transconjugant XJ81T expressing TEM-1, SHV-12, aac(6')-Ib by CLSI method
Escherichia coli [31] = assay: Antimicrobial activity against Escherichia coli C600 transconjugant WH76T expressing IMP-4, TEM-1, CTX-M-3, qnrS1 by CLSI method

| SMILES | MIC (Klebsiella pneumoniae [1]) [µg/mL] | MIC (Klebsiella pneumoniae [2]) [µg/mL] | MIC (Klebsiella pneumoniae [3]) [µg/mL] | MIC (Klebsiella pneumoniae [4]) [µg/mL] | MIC (Escherichia coli [5]) [µg/mL] | MIC (Escherichia coli [6]) [µg/mL] | MIC (Escherichia coli [7]) [µg/mL] | MIC (Enterobacter cloacae [8]) [µg/mL] | MIC (Enterobacter cloacae [11]) [µg/mL] | MIC (Citrobacter freundii [14]) [µg/mL] | MIC (Klebsiella pneumoniae [15]) [µg/mL] | MIC (Klebsiella pneumoniae [17]) [µg/mL] | MIC (Klebsiella pneumoniae [19]) [µg/mL] | MIC (Klebsiella pneumoniae [20]) [µg/mL] | MIC (Citrobacter freundii [22]) [µg/mL] | MIC (Enterobacter cloacae [23]) [µg/mL] | MIC (Enterobacter cloacae [24]) [µg/mL] | MIC (Klebsiella pneumoniae [26]) [µg/mL] | MIC (Klebsiella pneumoniae [27]) [µg/mL] | MIC (Klebsiella pneumoniae [28]) [µg/mL] | other results |
| --- | --- | --- | --- | --- | --- | --- | --- | --- | --- | --- | --- | --- | --- | --- | --- | --- | --- | --- | --- | --- | --- |
| CO[C@@]1(NC(=O)Cc2cccs2)C(=O)N2C(C(=O)O)=C(COC(N)=O)CS[C@@H]21 [CEFOXITIN] | 16 (≈ 37.4 µM) | > 256 | > 256 | 256 (≈ 599 µM) | > 256 | 128 (≈ 299 µM) | > 256 | > 256 | > 256 | > 256 | 128 (≈ 299 µM) | 32 (≈ 74.9 µM) | > 256 | > 256 | > 256 | > 256 | > 256 | > 256 | > 256 | > 256 | MIC (Escherichia coli [9]): 128 µg/mL (≈ 299 µM); MIC (Escherichia coli [10]): 64 µg/mL (≈ 150 µM); MIC (Enterobacter cloacae [12]): > 256 µg/mL; MIC (Enterobacter cloacae [13]): > 256 µg/mL; MIC (Klebsiella pneumoniae [16]): 16 µg/mL (≈ 37.4 µM); MIC (Klebsiella pneumoniae [18]): 32 µg/mL (≈ 74.9 µM); MIC (Klebsiella pneumoniae [21]): > 256 µg/mL; MIC (Klebsiella pneumoniae [25]): > 256 µg/mL; MIC (Klebsiella pneumoniae [29]): > 256 µg/mL; MIC (Escherichia coli [30]): 16 µg/mL (≈ 37.4 µM); MIC (Escherichia coli [31]): > 256 µg/mL |
| C[C@@H](O)[C@H]1C(=O)N2C(C(=O)O)=C(S[C@@H]3CN[C@H](C(=O)N(C)C)C3)[C@H](C)[C@H]12 [MEROPENEM] | 0.032 (≈ 0.0834 µM) | 4 (≈ 10.4 µM) | 8 (≈ 20.9 µM) | 8 (≈ 20.9 µM) | 8 (≈ 20.9 µM) | 0.032 (≈ 0.0834 µM) | 0.032 (≈ 0.0834 µM) | 2 (≈ 5.22 µM) | 4 (≈ 10.4 µM) | 2 (≈ 5.22 µM) | 1 (≈ 2.61 µM) | 4 (≈ 10.4 µM) | 1 (≈ 2.61 µM) | 2 (≈ 5.22 µM) | 4 (≈ 10.4 µM) | 8 (≈ 20.9 µM) | 8 (≈ 20.9 µM) | 8 (≈ 20.9 µM) | 4 (≈ 10.4 µM) | 2 (≈ 5.22 µM) | MIC (Klebsiella pneumoniae [29]): 2 µg/mL (≈ 5.22 µM) |
| CO/N=C(\C(=O)N[C@@H]1C(=O)N2C(C(=O)O)=C(COC(C)=O)CS[C@H]12)c1csc(N)n1 [CEFOTAXIME] | > 256 | 64 (≈ 141 µM) | > 256 | > 256 | 256 (≈ 562 µM) | 16 (≈ 35.1 µM) | 128 (≈ 281 µM) | 256 (≈ 562 µM) | > 256 | 256 (≈ 562 µM) | 8 (≈ 17.6 µM) | 16 (≈ 35.1 µM) | 128 (≈ 281 µM) | > 256 | 256 (≈ 562 µM) | > 256 | > 256 | 128 (≈ 281 µM) | 128 (≈ 281 µM) | > 256 | MIC (Escherichia coli [9]): > 256 µg/mL; MIC (Escherichia coli [10]): > 256 µg/mL; MIC (Enterobacter cloacae [12]): > 256 µg/mL; MIC (Enterobacter cloacae [13]): > 256 µg/mL; MIC (Klebsiella pneumoniae [16]): 256 µg/mL (≈ 562 µM); MIC (Klebsiella pneumoniae [18]): 256 µg/mL (≈ 562 µM); MIC (Klebsiella pneumoniae [21]): 256 µg/mL (≈ 562 µM); MIC (Klebsiella pneumoniae [25]): 128 µg/mL (≈ 281 µM); MIC (Klebsiella pneumoniae [29]): > 256 µg/mL; MIC (Escherichia coli [30]): 4 µg/mL (≈ 8.78 µM); MIC (Escherichia coli [31]): 256 µg/mL (≈ 562 µM) |
